Patent publication US12589143B2, “Human anti-PD-L1 peptide vaccines and methods of their use” (priority 2019, dated 2026)
Where no end group is shown, it is not given here.

Columns and labels:
PD-1/PD-L1 interaction = target: T1, PD-1/PD-L1 interaction (Homo sapiens, UniProt Q9NZQ7); experiment: PD-1/PD-L1 blockade bioassay (Promega); assay type: cell-based; conditions: antibodies from immunized rabbits, compared to Nivolumab and Atezolizumab
T1 construct: host or cells: PD-L1 aAPC/CHO-K1 cells and PD-1 effector cells
Experimental: The assay was performed following the manufacturer's protocol for the PD-1/PD-L1 blockade bioassay (Promega).
The bioluminescent cell-based PD-1/PD-L1 blockade bioassays provide a good option for rapid screening of therapeutic antibodies or other compounds developed to interfere with PD-1-signaling interaction. PD1/PD-L1 blockade assay was used to test the functionality of 3 anti-PD-L1 antibodies. It was observed that purified polyclonal anti-PD-L1 antibody from the rabbits was able to block PD1/PD-L1 interaction similar to commercial anti-human PD-L1 antibody (FIG. 12). […] In FIG. 12, we show the capacity of each of the PD-L1 vaccines to block the PD-1:PD-L1 interaction as compared to Nivolumab and Atezolizumab. Remarkably only PD-L1 130-147 antibodies were effective
The assay was performed following the manufacturer's protocol for the PD-1/PD-L1 blockade bioassay (Promega). In brief, 4×10^5 aAPC/CHO-K1 or PD-L1 aAPC/CHO-K1 cells were seeded into 96-well plates in RPMI-1640 with 10% FBS. After overnight culturing, the medium was aspirated, and serially diluted purified PD-L1 or PD-1 antibodies, as well as Nivolumab and Atezolizumab antibodies (as reference antibodies) were added. Next, PD-1 effector cells were co-cultured and plate was kept for 5 h at 37° C. in a humidified 5% CO2 incubator. Following mixing with Bio-Glo Reagent, the luminescence was measured with a luminescence plate reader, SpectraMax M3 plate reader (Molecular Devices).

[1] = system: MVF-PD-L1 peptide immunogen; experiment: Immunogenicity in Balb/c mice, experiment 2 (CT26/HER-2): ELISA of sera vs each MVF-PD-L1 peptide immunogen; assay type: in vivo; conditions: Balb/c mice
Experimental: Immunogenicity of MVF-PD-L1 B-cell epitopes. New Zealand White rabbits were immunized with 1 mg of each MVF-peptide immunogens dissolved in dd H2O emulsified (1:1) in Montanide ISA 720 vehicle (Seppic) with 333 μg of N-acetylglucosamine-3yl-acetyl-1-alanyl-d-isoglutamine (nor-MDP). Rabbits were boosted with the same doses at 3-week's intervals. Blood was collected via the central auricular artery in rabbits. Blood was collected weekly (1Y+3, 2Y+1, 2Y+2,2Y+3, 3Y+1, 3Y+2 and sera tested for antibody titers by ELISA using the immunogens MVF-PD-L1 peptides. Sera (terminal) from rabbit (3Y+3) immunized with MVF-PD-1 peptide immunogens were tested individually versus the immunogen by ELISA. 200 ng/well peptide were used in duplicates to coat the ELISA plates. Titers are defined as the highest dilution of sera with an absorbance value of 0.2 after subtracting the blank. […]
In order to verify the efficacy of the PD-L1 epitope vaccines in vivo in the CT26/HER-2 carcinoma cell line, Balb/c mice (10 mice/group) were immunized with 100 μg each of MVF-PD-L1 (36-53), MVF-PD-L1 (50-67), MVF-PD-L1 (95-112) and MVF-PD-L1 (130-147) emulsified with nor-MDP and Montanide 720 (1:1 ratio) SCHEME 2A (FIG. 15A). As detailed in SCHEME 2A-D (FIGS. 15A, 15B, 15C, and 15D), mice were immunized 3 times at 3 weeks intervals. […] All PD-L1 epitopes elicited high titers of PD-L1 anti-peptide antibodies by ELISA. […] We also investigated the combination of PD-1(92-110) with PD-L1-95.
For each peptide, vaccine antibodies were raised in New Zealand white rabbits, purchased from Charles River Laboratories (Wilmington, MA, USA). Rabbits were immunized with 1 mg of MVF chimeric peptide emulsified in Montanide ISA 720 (Seppic, Paris, France) and boosted 3 times at three week intervals. For mouse experiments, mice, 6-8 weeks old, were immunized with 0.1 mg of peptide emulsified in ISA720 (1:1 ratio). Mice were boosted with the respective doses at 3-week intervals. Blood was then collected and sera were tested for antibody titers. Sera were collected weekly and peptide vaccine antibodies were purified by affinity chromatography using a protein A/G column and the concentration was measured using Spectrophometer. All experiments were performed in accordance with the U.S. Public Health Service Policy on Humane Care and Use of Laboratory animals and approved by the Ohio State University Institutional Animals Care and Use Committee, detailed in the accepted protocol.
6-8 weeks old BALB/c mice (Charles River, Wilmington, MA) were used as standard animal models. Mouse CT26 colon carcinoma cell line was purchased from American Type Culture Collection Cells and were regularly cultured in RPMI1640 medium containing 10% FBS. CT26/HER2 cells were kindly provided by M. Penichet. Vaccines were dissolved in sterile water and emulsified in Montanide ISA 720 (1:1). Female Balb/c mice (Charles River Laboratories) at the age of 6-8 weeks were immunized three times at 3-week intervals with 100 μg of each peptide vaccine, and 2 weeks after the third immunization, the mice were challenged with CT26 and/or CT26/HER-2 tumor cells, which were implanted subcutaneously (s.c) on the right flank (1×10^5 per mouse). 200 μg of rat α-mouse PD-L1 mAb 10F.9G2 (Bio X Cell, West Lebanon, NH) were administered intraperitoneally (i.p.), twice weekly following tumor inoculation in the control group. Mice were monitored and scored for the formation of palpable tumors on a daily basis and sacrificed if tumors became necrotic or exceeded the predetermined size of 2,000 mm^3. Tumor volumes were measured in cubic millimeters with calipers and calculated with the following formula: A×B^2×0.5, where A is the largest diameter, and B is the widest point perpendicular to length. During immunization, blood was drawn weekly and used in ELISA to monitor antibody titers.

T1 sequence (Q9NZQ7 19-290): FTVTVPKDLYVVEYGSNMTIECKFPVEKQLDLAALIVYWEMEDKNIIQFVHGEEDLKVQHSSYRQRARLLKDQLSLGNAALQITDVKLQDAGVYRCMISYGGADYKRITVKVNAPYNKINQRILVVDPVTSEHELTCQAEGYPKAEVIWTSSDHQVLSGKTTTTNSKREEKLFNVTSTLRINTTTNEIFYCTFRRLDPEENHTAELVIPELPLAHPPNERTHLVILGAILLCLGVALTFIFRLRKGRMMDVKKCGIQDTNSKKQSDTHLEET

## KLLSLIKGVIVHRLEGVEGPSLFVHGEEDLKVQHSSYRQR (KLLSLIKGVIVHRLEGVEGPSLFVHGEEDLKVQHSSYRQR-NH2) [PD-L1(50)]
PD-1/PD-L1 interaction
  blocking of PD-1/PD-L1 interaction: unable to block PD-1 and PD-L1
[1]; bleed 1Y + 3
  Immunogenicity (titers) 1′ Conc. 1:: 6400
[1]; bleed 2Y + 1
  Immunogenicity (titers) 1′ Conc. 1:: 25600
[1]; bleed 2Y + 2
  Immunogenicity (titers) 1′ Conc. 1:: 128000
[1]; bleed 2Y + 3
  Immunogenicity (titers) 1′ Conc. 1:: 128000
[1]; bleed 3Y + 1
  Immunogenicity (titers) 1′ Conc. 1:: 128000
[1]; bleed 3Y + 2
  Immunogenicity (titers) 1′ Conc. 1:: 256000
[1]; bleed 3Y + 3
  Immunogenicity (titers) 1′ Conc. 1:: 256000

## KLLSLIKGVIVHRLEGVEGPSLYRCMISYGGADYKRITVK (KLLSLIKGVIVHRLEGVEGPSLYRCMISYGGADYKRITVK-NH2) [PD-L1(95)]
PD-1/PD-L1 interaction
  blocking of PD-1/PD-L1 interaction: unable to block PD-1 and PD-L1
[1]; bleed 1Y + 3
  Immunogenicity (titers) 1′ Conc. 1:: 100
[1]; bleed 2Y + 1
  Immunogenicity (titers) 1′ Conc. 1:: 12800
[1]; bleed 2Y + 2
  Immunogenicity (titers) 1′ Conc. 1:: 64000
[1]; bleed 2Y + 3
  Immunogenicity (titers) 1′ Conc. 1:: 64000
[1]; bleed 3Y + 1
  Immunogenicity (titers) 1′ Conc. 1:: 128000
[1]; bleed 3Y + 2
  Immunogenicity (titers) 1′ Conc. 1:: 128000
[1]; bleed 3Y + 3
  Immunogenicity (titers) 1′ Conc. 1:: 128000
